Here are results for three compounds from patent US10137102B2, “Oligomeric forms of 3-hydroxybutyrate” (Oulun Yliopisto, priority 2014, dated 2018).

Test [1] can be described thus: HOSC assay (fluorometric .OH scavenging capacity assay). Format: biochemical. To be noted: for hydroxyl radical scavenging activity (in words) / .OH scavengers, times better than ascorbic acid / .OH scavengers, times better than glutathione: FIG. 1; for hydroxyl radical scavenging activity (in words): compared with L-ascorbic acid, L-glutathione and 3-hydroxybutyric acid; for .OH scavengers, times better than ascorbic acid / .OH scavengers, times better than glutathione: HOSC assay under Fenton's reaction, against Trolox; for .OH scavengers, times better than ascorbic acid: comparator ascorbic acid; for .OH scavengers, times better than glutathione: comparator glutathione; for scavenging capacity, times better compared to 3-HB monomer, 3-hydroxybutyric acid (3-HBA): HOSC assay, comparator commercial 3-HBA. How it is done:
HOSC Assay (Fluorometric .OH Scavenging Capacity Assay)
Assay reactions were prepared according to Moore et al. (2006) and analyzed in black 96-well polystyrene plates (FluoroNunc, Thermo Scientific) with a Victor3 multilabel plate reader (PerkinElmer, Turku, Finland). Each reaction mixture contained 170 μl of 9.28×10^−8 M fluorescein (FL) prepared in 75 mM sodium phosphate buffer (pH 7.4), 30 μl of blank or sample or standard, 40 μl of 0.1990 M H2O2, and 60 μl of 3.43 mM FeCl3, pipetted to the 96-well plate in same order. Trolox standards (20, 40, 60, 80, and 100 μM), control solutions of glutathione, vitamin C, 3-HB monomer (3-hydroxybutyric acid, 3-HBA) (Sigma-Aldrich, St. Louis, Mo.), and the 3-HB oligomer samples were freshly prepared in 50% acetone for each assay. Each reaction was pipetted onto the 96-well plate in triplicate. Fluorescence was measured at the excitation wavelength of 485 nm and the emission wavelength of 535 nm. Read time for each well was 0.1 s, and each plate was read once per minute for 3 h. Based on the area under the curve (AUC) of the Trolox concentrations and the net area under the fluorescein decay curve (Ou et al. 2001), the relative HOSC values were calculated by using the regression equation for the pure compounds. Values were expressed as Trolox equivalents (TE), where one micromole of TE corresponds to one micromole of sample. The experiment was repeated three times.
Calculation of Area Under Curve (AUC) Values: AUC=0.5+f1/f0+f2/f0+f3/f0+ . . . +fi−1/f0+0.5(fi/f0) f0=the initial fluorescence reading at 0 min fi=the final fluorescence reading Calculation of Relative HOSC Values for Pure Compounds: [(AUCsample−AUCblank)/(AUCTrolox−AUCblank)]×(Molarity of Trolox/Molarity of sample)] Iron-Catalyzed Hydroxyl Radical Formation by Haber-Weiss Driven Fenton Reaction (Liochev 1999, Kehrer 2000): Fe^3++O.^2−→Fe^2++O2 (1) Fe^2++H2O2→Fe^3++OH^−+OH.(Fenton reaction) (2)
The Net Reaction: O.^2−+H2O2→O2+OH^−+OH. (3)
Fluorometric .OH scavenging capacity (HOSC) assays for 3-HB mono-, di- and trimers (molecules of general formula 1, wherein n is 1 and 2, respectively), along with glutathione and ascorbic acid was performed. […] Oligomers of 3-HB having a chain length longer than four units had low antioxidant activity.

The subject of test [2] is yeast GSH pathway deletion mutants gsh1Δ and gsh2Δ. Format: cell-based, S. cerevisiae. As to conditions: FIG. 2, 2.5 mM H2O2, 65 μM FeCl3.
Method: Yeast strains (gsh1Δ (YJL101c) and gsh2Δ (YOL049w); EUROSCARF) were streaked from glycerol stocks onto YEPD agar plates (1% w/v Bacto yeast extract; 2% w/v Bacto peptone; 2% w/v D-glucose; 2% w/v agar) and incubated at +30° C. for 48 h. Yeast pre-cultures were inoculated from the plates and grown in liquid SG minimal medium (0.67% w/v yeast nitrogen base without amino acids; 2% w/v glucose with appropriate supplements: uracil, 0.02 mg/ml; amino acids, 0.03 mg/ml) at +30° C. in orbital shaker with 180 rpm to stationary phase (1.0-1.2 OD600). Growth was measured spectrophotometrically at 600 nm (OD600) and the cell densities were adjusted to 1.0 OD600 before inoculation of the final density of 0.25 OD600 into each assay reaction.
To validate the alleviation of oxidative stress in living cells and to identify the cellular target proteins for hydroxyl radical scavenging in eukaryotic cells, a yeast deletion mutant bioassay was developed on the basis of HOSC assay (Moore et al. 2006). Hydroxyl radicals were generated under physiological pH (7.4) in Fenton-like Fe^3+/H2O2 reaction. The original assay settings were adjusted for yeast cells in phosphate buffered SG medium, and the pH and O2 levels were monitored by SENBIT® system (Vasala et al. 2006). The concentration of hydrogen peroxide was optimized to a sub-lethal level (2.5 mM) and the reaction was supplemented with appropriate amount of FeCl3 (0.0646 mM) to produce a constant flux of .OH radicals.
The total reaction volume was down-scaled to 1 ml, which made the assay suitable for the natural products low in quantity. […]
All treatments were pipetted in triplicate, and the experiment was repeated three times. Cell growth was monitored at +30° C. for 72 hours and Petri plates were scanned digitally to high-quality computer images after 48 and 72 hours. Hydroxyl radical-induced stress and the alleviation of stress by antioxidant compounds in various deletion mutant strains of S. cerevisiae were evaluated visually.
Test [3] concerns Shoot tips of Scots pine. Description: Viability assay on pine shoot tips. The class given is cell-based, Pinus sylvestris L. As to conditions: FIG. 3; medium including molecules (1) and (2); after five weeks; control shoot tip dead. How it is done: Viability Assay on Pine Shoot Tips Shoot tips (n=9-13) of Scots pine (Pinus sylvestris L.) were collected from young (>10 years) trees and surface-sterilized in 70% ethanol for 1 min and in 6% Ca(ClO)2 for 20 min, and rinsed thoroughly three times with sterile water. After rinsing in sterile water, the shoot tips (buds) were aseptically peeled in a laminar flow hood and placed on the media. The pine shoot tips were grown in 8/16 h photoperiod at +25±1° C. in the presence and absence of molecules of general formula I, wherein n is from 2 to 10. The viability of the pine tissue was assessed for up to 6 weeks visually (FIG. 3) and by 1% (w/v) acetocarmine staining. The viability on each fraction was recorded as percentage of live buds. The experiment was twice with each oligomer (mono- to decamer) on each Petri plate containing 18-31 pine shoot tips.

Take `COC(=O)CC(C)OC(=O)CC(C)O` (centres unmarked) [Compound 1, 3-hydroxybutyrate methyl ester dimer]: in test [1], the “hydroxyl radical scavenging activity (in words)” value is recorded as “significantly better”; the “.OH scavengers, times better than ascorbic acid” value is listed as 10 times; the “.OH scavengers, times better than glutathione” value came out at 3 times; the “scavenging capacity, times better compared to 3-HB monomer, 3-hydroxybutyric acid (3-HBA)” value is 10 times. For the same compound, in test [1] (compared with 3-hydroxybutyric acid or ascorbic acid), the “antioxidant capacity against hydroxyl radicals (in words)” value is listed as “more than tenfold higher”. Moreover, the “reversal of hypersensitivity of yeast mutants to hydroxyl radical stress (in words)” value (shortened to “reversal”) in test [2] is on record as “reversal of hypersensitivity”. Also, the “state of Scots pine shoot tip (in words)” value in test [3] is “alive”.

As to `COC(=O)CC(C)OC(=O)CC(C)OC(=O)CC(C)O` (centres unmarked) [Compound 2], in test [1], the “hydroxyl radical scavenging activity (in words)” value was “significantly better”; the “.OH scavengers, times better than ascorbic acid” value amounted to 10 times; the “.OH scavengers, times better than glutathione” value is 3 times; the “scavenging capacity, times better compared to 3-HB monomer, 3-hydroxybutyric acid (3-HBA)” value was 10 times. Besides, in test [2], the “reversal” value is reported as “reversal of hypersensitivity”. Also, in test [3], the “state of Scots pine shoot tip (in words)” value was “alive”.

Turning to `N[C@@H](CCC(=O)N[C@@H](CS)C(=O)NCC(=O)O)C(=O)O` [glutathione, reference compound], the “reversal” value in test [2] is “reversal of hypersensitivity”.
